pIC50: −log10 of the molar value. The source made the active and inactive calls. The rule behind the calls is not given here.
Assays:
Cytochrome P450 2D6 [1] = target: T1, Cytochrome P450 2D6 (Homo sapiens, UniProt P10635); assay: Inhibition of CYP2D6 coincubated with compound; format: ADME
[2] = target: Kinesin-like protein KIF11 (Homo sapiens) (UniProt P52732); assay: Selectivity for human KSP over HSET
Cytochrome P450 3A4 [3] = target: T2, Cytochrome P450 3A4 (Homo sapiens, UniProt P08684); assay: Inhibition of CYP3A4 preincubated with compound; format: ADME
T2 sequence (P08684 whole entry): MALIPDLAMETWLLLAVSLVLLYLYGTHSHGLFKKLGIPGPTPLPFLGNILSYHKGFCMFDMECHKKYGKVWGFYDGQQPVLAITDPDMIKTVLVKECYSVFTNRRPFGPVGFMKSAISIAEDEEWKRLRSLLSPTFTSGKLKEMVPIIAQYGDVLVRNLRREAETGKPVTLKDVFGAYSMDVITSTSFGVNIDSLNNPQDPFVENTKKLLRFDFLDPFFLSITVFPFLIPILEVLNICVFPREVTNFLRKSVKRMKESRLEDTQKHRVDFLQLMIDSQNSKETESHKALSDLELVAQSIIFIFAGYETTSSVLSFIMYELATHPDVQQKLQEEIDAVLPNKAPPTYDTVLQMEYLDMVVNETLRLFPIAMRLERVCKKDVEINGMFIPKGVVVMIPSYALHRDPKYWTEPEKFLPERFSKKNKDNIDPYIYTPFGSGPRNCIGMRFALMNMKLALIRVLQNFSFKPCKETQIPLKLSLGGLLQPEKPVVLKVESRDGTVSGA

[4] = target: T3, Kinesin-like protein KIF11 (Homo sapiens, UniProt P52732); assay: Inhibition of human kinesin spindle protein by endpoint assay
T3 sequence (P52732 whole entry): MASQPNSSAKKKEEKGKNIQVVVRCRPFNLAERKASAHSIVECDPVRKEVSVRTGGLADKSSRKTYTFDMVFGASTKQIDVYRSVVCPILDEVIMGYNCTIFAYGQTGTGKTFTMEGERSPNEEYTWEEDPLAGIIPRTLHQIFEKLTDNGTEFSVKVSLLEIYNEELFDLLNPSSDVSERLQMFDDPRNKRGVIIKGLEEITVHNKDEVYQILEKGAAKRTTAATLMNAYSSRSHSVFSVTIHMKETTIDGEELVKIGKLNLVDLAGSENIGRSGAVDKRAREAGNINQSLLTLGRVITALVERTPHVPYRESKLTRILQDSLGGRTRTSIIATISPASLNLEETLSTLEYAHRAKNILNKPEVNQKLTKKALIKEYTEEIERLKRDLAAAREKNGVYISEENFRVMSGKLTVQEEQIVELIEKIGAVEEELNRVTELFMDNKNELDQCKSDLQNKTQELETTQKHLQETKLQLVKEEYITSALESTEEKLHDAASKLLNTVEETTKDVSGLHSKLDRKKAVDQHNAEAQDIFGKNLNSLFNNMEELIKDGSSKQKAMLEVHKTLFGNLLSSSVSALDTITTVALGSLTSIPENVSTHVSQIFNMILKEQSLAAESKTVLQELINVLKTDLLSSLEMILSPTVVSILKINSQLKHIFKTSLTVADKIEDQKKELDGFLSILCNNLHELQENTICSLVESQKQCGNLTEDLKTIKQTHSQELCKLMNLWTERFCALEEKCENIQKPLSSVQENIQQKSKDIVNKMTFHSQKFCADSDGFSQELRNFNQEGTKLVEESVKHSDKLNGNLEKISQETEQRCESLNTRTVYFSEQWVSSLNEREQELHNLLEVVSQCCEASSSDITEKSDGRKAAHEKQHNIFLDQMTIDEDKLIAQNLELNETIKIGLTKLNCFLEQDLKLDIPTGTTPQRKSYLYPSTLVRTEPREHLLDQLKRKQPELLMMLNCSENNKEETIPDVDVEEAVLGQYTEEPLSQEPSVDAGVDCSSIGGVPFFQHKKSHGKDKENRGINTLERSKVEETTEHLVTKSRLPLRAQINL

Cytochrome P450 3A4 [5] = target: T2, Cytochrome P450 3A4; assay: Inhibition of CYP3A4 coincubated with compound; format: ADME
Cytochrome P450 2C9 [6] = target: T4, Cytochrome P450 2C9 (Homo sapiens, UniProt P11712); assay: Inhibition of CYP2C9 preincubated with compound; format: ADME
T4 sequence (P11712 whole entry, canonical isoform): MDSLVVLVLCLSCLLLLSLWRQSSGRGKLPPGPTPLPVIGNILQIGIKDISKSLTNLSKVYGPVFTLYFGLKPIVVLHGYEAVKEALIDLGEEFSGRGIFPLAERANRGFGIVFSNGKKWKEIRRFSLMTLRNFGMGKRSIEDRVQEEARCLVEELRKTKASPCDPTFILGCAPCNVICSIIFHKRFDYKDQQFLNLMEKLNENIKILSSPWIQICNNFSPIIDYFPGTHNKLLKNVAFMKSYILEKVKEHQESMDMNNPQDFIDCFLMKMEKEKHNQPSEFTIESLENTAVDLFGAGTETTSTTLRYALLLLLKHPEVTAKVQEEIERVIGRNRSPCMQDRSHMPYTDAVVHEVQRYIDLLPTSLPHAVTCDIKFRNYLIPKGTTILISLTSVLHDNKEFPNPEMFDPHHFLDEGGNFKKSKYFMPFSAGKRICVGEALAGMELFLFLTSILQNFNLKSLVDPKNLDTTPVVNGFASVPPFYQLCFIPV

[7] = target: T5, Kinesin heavy chain isoform 5A (Homo sapiens, UniProt Q12840); assay: Inhibition of nKHC
T5 sequence (Q12840 whole entry): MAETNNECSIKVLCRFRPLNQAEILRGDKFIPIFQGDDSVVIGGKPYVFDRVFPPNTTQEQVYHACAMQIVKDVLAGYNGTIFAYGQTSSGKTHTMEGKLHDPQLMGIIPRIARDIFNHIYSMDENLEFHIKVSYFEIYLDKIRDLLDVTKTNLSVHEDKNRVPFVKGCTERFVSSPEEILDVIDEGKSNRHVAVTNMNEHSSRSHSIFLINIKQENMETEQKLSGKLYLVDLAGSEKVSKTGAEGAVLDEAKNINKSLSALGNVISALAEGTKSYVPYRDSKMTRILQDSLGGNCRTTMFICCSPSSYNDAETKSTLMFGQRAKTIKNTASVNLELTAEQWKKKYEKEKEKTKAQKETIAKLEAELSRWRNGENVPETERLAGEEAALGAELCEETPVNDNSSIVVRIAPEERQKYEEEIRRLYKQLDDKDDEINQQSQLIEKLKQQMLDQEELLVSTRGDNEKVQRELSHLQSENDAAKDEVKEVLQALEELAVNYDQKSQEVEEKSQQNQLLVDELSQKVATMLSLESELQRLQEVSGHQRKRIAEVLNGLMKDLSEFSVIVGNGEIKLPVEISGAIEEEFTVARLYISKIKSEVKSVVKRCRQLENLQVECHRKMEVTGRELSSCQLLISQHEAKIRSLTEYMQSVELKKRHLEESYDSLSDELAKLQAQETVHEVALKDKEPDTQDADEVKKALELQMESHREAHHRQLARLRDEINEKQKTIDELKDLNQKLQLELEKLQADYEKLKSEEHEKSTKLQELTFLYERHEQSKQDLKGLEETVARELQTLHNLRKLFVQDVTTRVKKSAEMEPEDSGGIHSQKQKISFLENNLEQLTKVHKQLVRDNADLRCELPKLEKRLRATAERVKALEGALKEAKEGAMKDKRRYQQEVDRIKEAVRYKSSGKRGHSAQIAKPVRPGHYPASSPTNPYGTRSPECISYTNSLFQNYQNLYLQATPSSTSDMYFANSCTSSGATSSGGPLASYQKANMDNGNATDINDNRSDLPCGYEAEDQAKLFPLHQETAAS

A2780 [8] = assay: Antiproliferative activity against human A2780 cells assessed s occurrence of monostral phenotype at 25 uM after 48 hrs by Almar blue assay; format: functional, cell-based
A2780 [9] = assay: Antiproliferative activity against human A2780 cells after 48 hrs by Almar blue assay; format: functional, cell-based; details: A2780, 48 h
Cytochrome P450 2D6 [10] = target: T1, Cytochrome P450 2D6; assay: Inhibition of CYP2D6 preincubated with compound; format: ADME
[11] = Permeability across human Caco-2 cell membrane; format: ADME, cell-based; details: read-out: permeability
[12] = target: T6, Kinesin-like protein KIF3B (Homo sapiens, UniProt O15066); assay: Inhibition of Kif3B
T6 sequence (O15066 whole entry): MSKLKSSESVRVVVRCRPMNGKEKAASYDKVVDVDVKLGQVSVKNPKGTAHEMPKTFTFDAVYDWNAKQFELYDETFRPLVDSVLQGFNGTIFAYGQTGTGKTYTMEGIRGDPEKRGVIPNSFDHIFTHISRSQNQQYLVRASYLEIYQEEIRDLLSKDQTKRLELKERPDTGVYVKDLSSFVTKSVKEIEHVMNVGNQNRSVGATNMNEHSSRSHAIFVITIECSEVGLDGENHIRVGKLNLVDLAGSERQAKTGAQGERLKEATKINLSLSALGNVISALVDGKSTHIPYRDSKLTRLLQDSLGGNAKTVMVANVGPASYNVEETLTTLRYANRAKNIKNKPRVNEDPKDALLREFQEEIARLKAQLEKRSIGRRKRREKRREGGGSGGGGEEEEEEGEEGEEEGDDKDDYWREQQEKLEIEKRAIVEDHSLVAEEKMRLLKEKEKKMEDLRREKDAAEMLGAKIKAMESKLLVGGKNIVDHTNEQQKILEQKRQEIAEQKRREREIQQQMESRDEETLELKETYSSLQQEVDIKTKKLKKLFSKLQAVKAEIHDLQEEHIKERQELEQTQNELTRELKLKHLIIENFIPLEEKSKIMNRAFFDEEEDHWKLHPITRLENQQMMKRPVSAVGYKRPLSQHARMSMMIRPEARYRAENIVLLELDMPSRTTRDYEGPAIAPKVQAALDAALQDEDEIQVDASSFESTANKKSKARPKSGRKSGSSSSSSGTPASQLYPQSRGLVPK

Cytochrome P450 2C9 [13] = target: T4, Cytochrome P450 2C9; assay: Inhibition of CYP2C9 coincubated with compound; format: ADME
Rattus norvegicus = assay: AUC in rat at 10 mg/kg after 6 hrs; format: ADME, organism-based, Plasma; design: time < 6 hr, dose 10 mg/kg; details: in vivo

T1 sequence (P10635 whole entry): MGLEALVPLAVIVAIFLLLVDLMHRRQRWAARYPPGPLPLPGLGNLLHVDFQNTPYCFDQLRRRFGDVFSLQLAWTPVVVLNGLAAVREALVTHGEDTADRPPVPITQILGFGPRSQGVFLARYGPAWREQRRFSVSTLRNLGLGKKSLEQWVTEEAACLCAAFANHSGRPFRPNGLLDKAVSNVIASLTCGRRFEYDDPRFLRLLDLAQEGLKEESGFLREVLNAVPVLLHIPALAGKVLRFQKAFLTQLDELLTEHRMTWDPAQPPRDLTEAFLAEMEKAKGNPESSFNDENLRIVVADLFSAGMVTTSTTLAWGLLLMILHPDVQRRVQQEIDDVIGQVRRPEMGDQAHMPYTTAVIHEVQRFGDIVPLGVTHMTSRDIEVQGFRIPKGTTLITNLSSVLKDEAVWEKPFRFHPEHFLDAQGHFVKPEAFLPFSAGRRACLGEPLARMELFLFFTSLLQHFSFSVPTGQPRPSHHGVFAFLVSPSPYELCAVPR

SMILES | pIC50 (Cytochrome P450 2D6 [1]) | fold change (FC) [2] | pIC50 (Cytochrome P450 3A4 [3]) | pIC50 [4] | pIC50 (Cytochrome P450 3A4 [5]) | pIC50 (Cytochrome P450 2C9 [6]) | pIC50 [7] | Activity (A2780 [8]) | pIC50 (A2780 [9]) | pIC50 (Cytochrome P450 2D6 [10]) | Papp [11] [×10⁻⁶ cm/s] | pIC50 [12] | pIC50 (Cytochrome P450 2C9 [13]) | AUC (Rattus norvegicus) [nM·h]
CSc1ccc(Nc2nc3cc(C(N)=O)ccc3n2Cc2ccccc2C(F)(F)F)cc1 | < 4.52 | 8 | > 4.82 | 6.28 | < 4.52 | < 5.15 | < 4.30 | Active | 4.80 | < 4.82 | 53 | < 4.30 | 4.85 | 150
CS(=O)(=O)c1ccc(Nc2nc3cc(C(N)=O)ccc3n2Cc2ccccc2C(F)(F)F)cc1 | < 4.52 | – | < 4.70 | 5.32 | < 4.52 | < 5.10 | < 4.30 | – | – | < 4.82 | 1.8 | < 4.30 | 4.82 | 0
COc1ccc(Nc2nc3cc(C(N)=O)ccc3n2Cc2ccccc2C(F)(F)F)cc1 | < 4.52 | – | < 4.82 | 5.60 | < 4.52 | < 5.40 | < 4.30 | Active | 4.72 | < 4.82 | 67 | < 4.30 | 5.10 | 600

From ChEMBL document CHEMBL1158447, “Substituted benzimidazoles: A novel chemotype for small molecule hKSP inhibitors” (Bioorg Med Chem Lett, 2009)
